Experimental data reported in patent EP0628039B1, “2,3,4,5-TETRAHYDRO-1H-3-BENZAZEPINES AND PHARMACEUTICALLY ACCEPTABLE ACID ADDITION SALTS THEREOF” (NOVO NORDISK A/S, priority 1992, dated 1993).
Like-named read-outs stand apart in the source and are kept apart here.

Target: T1, dopamine D1 receptor (Rattus norvegicus, UniProt P18901)
T1 construct: homogenates from rat striatum; from tissue; host or cells: rat striatum homogenate
Assay: Binding to dopamine D1 receptor in homogenates from rat striatum

T1 sequence (P18901 whole entry): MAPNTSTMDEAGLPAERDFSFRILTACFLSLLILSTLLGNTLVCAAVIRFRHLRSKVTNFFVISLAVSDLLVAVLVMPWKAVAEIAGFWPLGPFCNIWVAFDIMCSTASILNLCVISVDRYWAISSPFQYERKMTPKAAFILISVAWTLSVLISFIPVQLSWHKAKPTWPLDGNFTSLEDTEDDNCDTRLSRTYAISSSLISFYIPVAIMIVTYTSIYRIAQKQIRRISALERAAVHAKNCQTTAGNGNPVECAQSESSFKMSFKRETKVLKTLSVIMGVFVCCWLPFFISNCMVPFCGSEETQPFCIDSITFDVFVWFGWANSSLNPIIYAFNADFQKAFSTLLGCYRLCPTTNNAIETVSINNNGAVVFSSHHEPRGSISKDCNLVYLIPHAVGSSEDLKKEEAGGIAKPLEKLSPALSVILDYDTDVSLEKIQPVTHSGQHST

IC50 (homogenates from rat striatum, read-out: IC50 (nM) Dopamine D1 receptor) [nM] | Structure (SMILES) | IC50 [nM]
0.9 | CN1CCc2cc(Cl)c(O)cc2C(c2c(Cl)c(Cl)cc3c2OCC3)C1 (single isomer, unassigned; (+)) [Example 3, (+)8-Chloro-5-(5,6-dichloro-2,3-dihydrobenzofuran-7-yl)-7-hydroxy-3-methyl-2,3,4,5-tetrahydro-1H-3-benzazepine] | 
 | CN1CCc2cc(Cl)c(O)cc2C(c2cc(Br)cc3c2OCC3)C1 (single isomer, unassigned; (+)) [Example 1, (+) 8-Chloro-5-(5-bromo-2,3-dihydrobenzofuran-7-yl)-7-hydroxy-3-methyl-2,3,4,5-tetrahydro-1H-3-benzazepine] | 0.7
